Values quoted from earlier work as cited in patent publication US5939423A, “Treatment of hepatitis B infection with thymosin alpha 1 and famciclovir” (priority 1997, dated 1999).
Ends that are not written are not given here.

What was measured:
HBV [1] = tested on: HBV
HBV [2] = details: named patients
[3] = more than 3000 patients
HBV [4] = details: in vivo
duck hepatitis B virus = details: for maintenance of suppression of HBV DNA and DNA polymerase during treatment: 21 days of treatment; for maintenance of suppression of HBV DNA and DNA polymerase during treatment / DNA polymerase level / HBV DNA level: oral twice a day, penciclovir 20 and 100 mg/kg, famciclovir 5 and 25 mg/kg; for inhibition of duck hepatitis B viral replication: Peking duck; for HBV DNA and DNA polymerase levels after the post-dosing suppression: later than two days after dosing had stopped; for DNA polymerase level / HBV DNA level: within two days of start
[5] = single and repeat doses up to 1000 mg three times daily for six days
HBV [6] = details: preliminary data; up to 500 mg three times a day for 16 weeks
[7] = not given; remark: listed apart in the source
HBV [8] = details: 10 day course, 250 mg or 500 mg tid
HBV [9] = details: 1.45 to 1.75 mg (adults) per twice-weekly injection
anti-HBs = details: previously non-reactive hemodialysis patients
HBV [10] = tested on: HBV; remark: listed apart in the source
[11] = in vivo
[12] = tested on: woodchuck hepatitis virus (WHV)
HBV infection = details: treatment of HBV infection
T4 (helper/inducer)cells = details: by activation of the T4 (helper/inducer) cells
HBV [13] = tested on: HBV; remark: listed apart in the source
HBV [14] = tested on: HBV; remark: listed apart in the source
[15] = 12 patients received TF5 or Tα1, p<0.004 vs placebo, Fisher's exact test
[16] = during the 1 yr study or post study follow up, p<0.11 vs placebo
[17] = n = 49, 1.6 mg s.c. 2×/week, 6 months, p value 0.084 vs placebo
[18] = n = 49, 1.6 mg s.c. 2×/week, 6 months, p value ns

interferon-alpha
clear HBeAg (HBV [1]; Asian patients): 15-20%
sustained clearance of hepatitis B e antigen (HBeAg) (HBV [1]; North America and European patients): 30-40%
clear HBsAg (HBV [1]; of the Asian patients who clear HBeAg): approximately 10%
ultimately cleared hepatitis B surface antigen (HBsAg) (HBV [1]; of the North America and European patients with HBeAg clearance): 25-65%

CC(=O)OCC(CCn1cnc2cnc(N)nc21)COC(C)=O [famciclovir, diacetylester of 6-deoxy penciclovir]
efficacy in patients with HBV reinfection following liver transplantation (HBV [2]): shown efficacy
most common adverse experiences [3]: headache, nausea and diarrhea
safety profile (HBV [4]): good safety profile
suppressing HBV replication (HBV [4]): effective in suppressing HBV replication
maintenance of suppression of HBV DNA and DNA polymerase during treatment (duck hepatitis B virus): maintained this suppression during the 21 days
inhibition of duck hepatitis B viral replication (duck hepatitis B virus): clearly inhibit
suppression of viral replication after dosing had stopped (duck hepatitis B virus): remained suppressed for at least two days
HBV DNA and DNA polymerase levels after the post-dosing suppression (duck hepatitis B virus): returned to pre-treatment levels
DNA polymerase level (duck hepatitis B virus): undetectable
HBV DNA level (duck hepatitis B virus): undetectable
drug-related adverse effects on clinical laboratory values, blood pressure, heart rates or ECG measurements [5]: no evidence of drug-related adverse effects
reduction in HBV DNA and ALT levels (HBV [6]): significant reduction
conversion to penciclovir (removal of one ester group): partly in the intestinal wall
completion of conversion to penciclovir (removal of remaining ester group, oxidation at the 6-position): completed in the liver
absorption ([7]; oral, volunteers): well absorbed
fall in HBV DNA levels (HBV [8]; in 6 of 11 evaluable patients): greater than 90%
evaluable patients with greater than 90% fall in HBV DNA levels (HBV [8]; of 11 evaluable patients): 6

Tα1: 28 amino acid peptide with a molecular weight of 3108, initially isolated from Thymus Fraction 5, sequenced and chemically synthesized (SDAAVDTSSEITTKDLKEKKEVVEEAEN; ends and bridges not checked; UniProt P06454 2-29, looked up)
safety and effectiveness in clearing HBV DNA from the blood (HBV [9]): safe and effective
modulating the maturation of T cells (T cells): activity similar to TF5
in vivo production of anti-HBs following Heptavax-B vaccination (anti-HBs): enhance
number of patients who cleared serum HBV DNA (HBV [10]; [15]): Nine
patients who cleared serum HBV DNA (HBV [10]; [15]): 75%
peripheral blood lymphocyte, CD3 and CD4 counts, and in vitro production of interferon-gamma (HBV [10]; associated with response, over initial values): significant improvements
responders with sustained remission with normal ALT levels and negative serum HBV DNA (using PCR) and HBeAg (HBV [10]; of the responders): About 78%
side effects (HBV [10]; twice weekly for six months): No side effects were observed
serum aminotransferase levels (HBV [10]; twice weekly for six months, conclusion of the study (1 year)): improved significantly
lymphocyte IL2 receptor expression (normal human lymphocytes): increase
interferon-alpha, interferon-gamma, and IL2 and IL3 production (normal human lymphocytes; normal human lymphocytes): promote
local or systemic side effects [11]: no local or systemic side effects have been observed
change of WHV DNA replication intermediates from pretreatment levels ([12]; liver biopsy, the other 2 animals, end of treatment): only a small change
treated animals with undetectable WHV DNA levels ([12]; of 6 animals, 10 μg/Kg s.c. twice weekly, 28 weeks): 4
depression of WHV DNA levels ([12]; remaining 2 animals, 10 μg/Kg s.c. twice weekly, 28 weeks): 100 fold
immune responsiveness (HBV infection): enhances immune responsiveness
specific lymphocyte parameters (HBV infection): augments specific lymphocyte parameters to significantly higher levels
allogenic and autologous human mixed lymphocyte reactions (T4 (helper/inducer)cells): enhances
sustained loss of HBV DNA with negative HBeAg (HBV [13]; [16]): 25%
sustained loss of HBV DNA with negative HBeAg, number of patients (HBV [13]; [16]): 12
CR (%) (complete response) (HBV [13]; [17]): 14%
CR (complete response), number of patients (HBV [13]; [17]): 7
DR (%) (delayed response) (HBV [13]; [18]): 10%
DR (delayed response), number of patients (HBV [13]; [18]): 5
IR (%) (incomplete response) (HBV [13]; [18]): 0%
IR (incomplete response), number of patients (HBV [13]; [18]): 0

Nc1nc2c(ncn2CCC(CO)CO)c(=O)[nH]1 [penciclovir]
reduction in HBV DNA by 6 day (HBV [14]; 1 microgram/ml, by 6 day): 50%
reduction in HBV DNA by day 9 (HBV [14]; 1 microgram/ml, by day 9): 90%
concentration dependence of HBV DNA reduction (HBV [14]; 2.2.15 hepatoma cells): concentration dependent
inhibition of HBV in human cells (HBV [14]; 2.2.15 hepatoma cells): potent inhibitor
efficacy against zoster virus (zoster): proven efficacy
maintenance of suppression of HBV DNA and DNA polymerase during treatment (duck hepatitis B virus): maintained this suppression during the 21 days
inhibition of duck hepatitis B viral replication (duck hepatitis B virus): clearly inhibit
suppression of viral replication after dosing had stopped (duck hepatitis B virus): remained suppressed for at least two days
HBV DNA and DNA polymerase levels after the post-dosing suppression (duck hepatitis B virus): returned to pre-treatment levels
DNA polymerase level (duck hepatitis B virus): undetectable
HBV DNA level (duck hepatitis B virus): undetectable
efficacy against herpes simplex virus (herpes simplex): proven efficacy
Cmax (penciclovir) ([7]; oral penciclovir alone, 5 mg/kg dose): approximately 0.14 microgram/ml

Nc1ccn([C@@H]2CS[C@H](CO)O2)c(=O)n1 [lamivudine]
safety profile (HBV [4]): good safety profile
suppressing HBV replication (HBV [4]): effective in suppressing HBV replication
